Here are results for one compound from paper PMC5520944 (Cell Death & Disease, 2017).

Holding throughout (assay type): cell-based
One test addresses T1, MLKL (Mus musculus, UniProt Q9D2Y4).
T1 construct: endogenous, L929sAhFas and MEF cell lysates
T1 sequence (Q9D2Y4 1-472): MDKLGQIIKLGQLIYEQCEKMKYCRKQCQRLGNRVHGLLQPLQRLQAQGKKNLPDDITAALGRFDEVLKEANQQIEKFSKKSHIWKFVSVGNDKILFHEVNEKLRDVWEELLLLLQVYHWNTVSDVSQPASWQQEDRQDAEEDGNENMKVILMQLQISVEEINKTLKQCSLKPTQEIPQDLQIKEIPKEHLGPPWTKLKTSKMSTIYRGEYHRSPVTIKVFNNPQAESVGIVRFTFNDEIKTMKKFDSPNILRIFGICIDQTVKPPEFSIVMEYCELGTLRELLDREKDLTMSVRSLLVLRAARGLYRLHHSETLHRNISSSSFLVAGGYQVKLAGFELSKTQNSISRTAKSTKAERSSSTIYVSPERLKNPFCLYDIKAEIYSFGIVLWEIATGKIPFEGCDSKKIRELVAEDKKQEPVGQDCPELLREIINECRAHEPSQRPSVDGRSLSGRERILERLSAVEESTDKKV
Kind of test: streptavidin pull down from lysates, including RIPK1-/- and RIPK3-/- MEF.

In the next test the target is T2, RIPK1 (Mus musculus, UniProt Q60855).
T2 construct: endogenous, L929sAhFas and MEF cell lysates
T2 sequence (Q60855 1-656): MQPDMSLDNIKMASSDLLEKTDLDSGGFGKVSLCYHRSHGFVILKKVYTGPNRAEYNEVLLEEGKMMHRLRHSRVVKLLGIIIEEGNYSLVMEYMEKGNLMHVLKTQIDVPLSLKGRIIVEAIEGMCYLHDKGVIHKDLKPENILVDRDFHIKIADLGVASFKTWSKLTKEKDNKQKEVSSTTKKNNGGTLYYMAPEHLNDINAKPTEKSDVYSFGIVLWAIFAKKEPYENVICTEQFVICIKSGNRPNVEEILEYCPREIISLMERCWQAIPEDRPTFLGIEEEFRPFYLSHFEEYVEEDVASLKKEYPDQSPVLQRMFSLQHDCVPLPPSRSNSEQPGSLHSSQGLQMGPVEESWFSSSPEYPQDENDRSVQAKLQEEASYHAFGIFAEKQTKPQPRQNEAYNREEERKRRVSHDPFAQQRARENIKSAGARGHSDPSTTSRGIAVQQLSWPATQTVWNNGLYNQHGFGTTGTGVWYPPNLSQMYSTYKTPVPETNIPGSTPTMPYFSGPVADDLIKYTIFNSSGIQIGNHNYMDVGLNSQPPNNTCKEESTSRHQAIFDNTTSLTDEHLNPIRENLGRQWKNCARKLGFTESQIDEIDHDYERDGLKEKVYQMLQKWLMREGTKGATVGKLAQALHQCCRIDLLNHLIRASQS
As to the kind of experiment: streptavidin pull down from cell lysate, immunoblot.

In the next test the target is T3, RIPK3 (Mus musculus, UniProt Q9QZL0).
T3 construct: endogenous, L929sAhFas and MEF cell lysates
Described as above.

In a further test the target is T4, B-Raf (Mus musculus, UniProt P28028).
T4 construct: gene Braf; endogenous, L929sAhFas cell lysate
The description is as above.

T4 sequence (P28028 2-751): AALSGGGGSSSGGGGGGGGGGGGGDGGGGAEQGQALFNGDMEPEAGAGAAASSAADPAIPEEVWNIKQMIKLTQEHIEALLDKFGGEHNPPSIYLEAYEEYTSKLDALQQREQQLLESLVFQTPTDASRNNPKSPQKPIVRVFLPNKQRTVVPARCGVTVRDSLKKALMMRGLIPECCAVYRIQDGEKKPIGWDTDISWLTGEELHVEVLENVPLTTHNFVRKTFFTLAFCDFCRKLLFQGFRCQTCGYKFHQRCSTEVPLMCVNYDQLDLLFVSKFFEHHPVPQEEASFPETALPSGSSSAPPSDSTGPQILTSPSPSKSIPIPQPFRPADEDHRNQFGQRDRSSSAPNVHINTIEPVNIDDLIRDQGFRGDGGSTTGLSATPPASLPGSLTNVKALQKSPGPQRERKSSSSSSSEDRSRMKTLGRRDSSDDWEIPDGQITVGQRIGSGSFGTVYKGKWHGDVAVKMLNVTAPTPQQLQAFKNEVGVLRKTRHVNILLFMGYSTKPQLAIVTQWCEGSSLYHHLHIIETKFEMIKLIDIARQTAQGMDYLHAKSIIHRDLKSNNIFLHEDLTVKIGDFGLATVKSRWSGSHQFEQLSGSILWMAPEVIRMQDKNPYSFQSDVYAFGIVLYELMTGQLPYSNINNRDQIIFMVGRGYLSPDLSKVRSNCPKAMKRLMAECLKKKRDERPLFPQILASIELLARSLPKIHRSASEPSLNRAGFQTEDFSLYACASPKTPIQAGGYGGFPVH
T3 sequence (Q9QZL0 whole entry): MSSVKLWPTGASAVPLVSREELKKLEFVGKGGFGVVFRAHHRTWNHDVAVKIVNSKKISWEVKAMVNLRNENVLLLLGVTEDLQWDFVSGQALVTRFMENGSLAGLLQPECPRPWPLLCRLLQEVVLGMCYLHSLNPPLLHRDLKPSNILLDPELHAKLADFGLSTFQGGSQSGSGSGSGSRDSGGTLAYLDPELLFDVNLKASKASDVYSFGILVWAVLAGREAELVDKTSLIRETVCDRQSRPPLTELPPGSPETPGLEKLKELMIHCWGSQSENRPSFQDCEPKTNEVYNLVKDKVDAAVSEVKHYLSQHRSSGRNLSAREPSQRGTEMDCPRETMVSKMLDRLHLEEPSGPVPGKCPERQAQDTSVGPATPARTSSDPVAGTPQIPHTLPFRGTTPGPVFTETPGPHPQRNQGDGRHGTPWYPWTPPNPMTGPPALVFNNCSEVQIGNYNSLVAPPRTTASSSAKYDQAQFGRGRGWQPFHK

For `O=C(CCCC[C@@H]1SC[C@@H]2NC(=O)N[C@@H]21)NCCOCCOCCNC(=O)c1cc(Oc2ccc(NC(=O)Nc3ccc(Cl)c(C(F)(F)F)c3)cc2)ccn1` [compound 10, biotinylated Sorafenib], the “streptavidin pull down from lysates, including RIPK1-/- and RIPK3-/- MEF” value on MLKL was “Sorafenib is likely to bind independently to RIPK1, RIPK3 or MLKL (Figure 4c), even in the absence of a necroptotic stimulus”. Besides, the “streptavidin pull down from cell lysate, immunoblot” value at RIPK1 is “We show a dose-dependent pull down of RIPK1, RIPK3, MLKL and B-Raf”; at RIPK3, “We show a dose-dependent pull down of RIPK1, RIPK3, MLKL and B-Raf”; at B-Raf, “We show a dose-dependent pull down of RIPK1, RIPK3, MLKL and B-Raf”.
